According to paper PMC10669656, “ADMET and Solubility Analysis of New 5-Nitroisatine-Based Inhibitors of CDK2 Enzymes” (Biomedicines, 2023):
Converted amounts (≈) assume the structure as drawn. “And” between values parts separate entries of the source, which are not always exact repeats. Equal entries are not always repeated.

Columns and labels:
Assay type in all cases: physicochemical
[1] = Solubility in DMSO-water binary mixtures; details: for solubility at 24 h: 25 °C, thermodynamic from solid
Method: (§1) The calibration curves for each derivative were obtained using successful dilutions of initial stock solutions followed by spectrophotometric measurements of the obtained solutions with decreasing concentration. The concentration ranges for the derivatives 1, 2, and 3 were 0.0081–0.0405 mg/mL, 0.0077–0.0385 mg/mL, and 0.0068–0.017 mg/mL, respectively. Methanol was used both as a solvent, as well as a reference for spectrophotometric measurements. […] The A360 spectrophotometer from AOE Instruments was used for the preparation of the calibration curves. […] Three calibration curves were prepared for each derivative and then averaged.
(§2) A multi-step procedure was employed in order to find the solubility of the studied derivatives in the selected solvents. First of all, the excess amount of the considered compound was added to test tubes containing either neat solvents or their mixtures with water in different proportions, thus forming binary solvents. Saturated solutions were obtained in this way, placed in a Shaker Incubator ES-20/60 from Biosan, and incubated for 24 h at 298.1 K. The temperature adjustment was possible with a 0.1-degree accuracy, and the variance within a 24 h cycle was 0.5 degrees. The samples were simultaneously mixed at 60 rev/min. After incubation, the samples were filtered with the help of plastic syringes equipped with PTFE filters with 0.22 µm pore size. The obtained filtrates were diluted with methanol in another set of test tubes. In order to determine the mole fractions of a solute in the solution, 1 mL of the filtered samples was weighed in 10 mL volumetric flasks using a RADWAG AS 110 R2.PLUS analytical balance. The samples diluted with methanol were measured spectrophotometrically using the same instrument as was used in the case of calibration curves. The spectra were recorded in the wavelength range of 190–500 nm, and the resolution was 1 nm. Methanol was used if further dilution of the sample was required, and it was also used as a reference for calibrating the spectrophotometer. The absorbance values at 315 nm, 321 nm, and 321 nm were taken into account for derivatives 1, 2, and 3, respectively. Based on the calibration curves, the concentration of the solute in the samples was determined together with its mole fraction. Three separate measurements were conducted, and the final values are the results of averaging them.

[2] = Solubility in NMP-water binary mixtures; details: for solubility at 24 h: thermodynamic from solid
Method: as §1, §2

[3] = Solubility in neat solvents, shake-flask with spectrophotometric determination; details: for solubility at 24 h: 25 °C, organic solvent or mixture, thermodynamic from solid
Method: as §1, §2

[4] = neat γ-nonanoic lactone, 298.1 K

O=C1Nc2ccc([N+](=O)[O-])cc2C1=NNC(=O)c1cccc([N+](=O)[O-])c1 [derivative 3, 3-nitro-N′-[5-nitro-2-oxo-1,2-dihydro-3H-indol-3-ylidene]benzohydrazide]
solubility at 24 h ([1]; DMSO-water binary mixture, aqueous with cosolvent or surfactant or cyclodextrin, x*DMSO 0.1, 298.1 K): 860 µg/mL (≈ 2.42 mM) | solubility at 24 h ([1]; DMSO-water binary mixture, aqueous with cosolvent or surfactant or cyclodextrin, x*DMSO 0.2, 298.1 K): 1580 µg/mL (≈ 4.45 mM) | solubility at 24 h ([1]; DMSO-water binary mixture, aqueous with cosolvent or surfactant or cyclodextrin, x*DMSO 0.3, 298.1 K): 2480 µg/mL (≈ 6.98 mM) | solubility at 24 h ([1]; DMSO-water binary mixture, aqueous with cosolvent or surfactant or cyclodextrin, x*DMSO 0.4, 298.1 K): 3300 µg/mL (≈ 9.29 mM) | solubility at 24 h ([1]; DMSO-water binary mixture, aqueous with cosolvent or surfactant or cyclodextrin, x*DMSO 0.5, 298.1 K): 3750 µg/mL (≈ 10.6 mM) | solubility at 24 h ([1]; DMSO-water binary mixture, aqueous with cosolvent or surfactant or cyclodextrin, x*DMSO 0.6, 298.1 K): 3950 µg/mL (≈ 11.1 mM) | solubility at 24 h ([1]; DMSO-water binary mixture, aqueous with cosolvent or surfactant or cyclodextrin, x*DMSO 0.7, 298.1 K): 4010 µg/mL (≈ 11.3 mM) | solubility at 24 h ([1]; DMSO-water binary mixture, aqueous with cosolvent or surfactant or cyclodextrin, x*DMSO 0.8, 298.1 K): 3850 µg/mL (≈ 10.8 mM) | solubility at 24 h ([1]; DMSO-water binary mixture, aqueous with cosolvent or surfactant or cyclodextrin, x*DMSO 0.9, 298.1 K): 3540 µg/mL (≈ 9.96 mM) | solubility at 24 h ([1]; DMSO-water series, organic solvent or mixture, x*DMSO 1.0, 298.1 K): 3090 µg/mL (≈ 8.7 mM) | solubility x ([1]; x*DMSO 0.2, 298.1 K): 1.21 (0.01) × 10^−4 mole fraction | solubility x ([1]; x*DMSO 0.3, 298.1 K): 2.29 (0.01) × 10^−4 mole fraction | solubility x ([1]; x*DMSO 0.4, 298.1 K): 3.57 (0.03) × 10^−4 mole fraction | solubility x ([1]; x*DMSO 0.5, 298.1 K): 4.59 (0.04) × 10^−4 mole fraction | solubility x ([1]; x*DMSO 0.6, 298.1 K): 5.45 (0.03) × 10^−4 mole fraction | solubility x ([1]; x*DMSO 0.7, 298.1 K): 6.09 (0.03) × 10^−4 mole fraction | solubility x ([1]; x*DMSO 0.8, 298.1 K): 6.47 (0.04) × 10^−4 mole fraction | solubility x ([1]; x*DMSO 0.9, 298.1 K): 6.51 (0.04) × 10^−4 mole fraction | solubility x ([1]; x*DMSO 1.0, 298.1 K): 6.12 (0.07) × 10^−4 mole fraction | solubility at 24 h ([2]; NMP-water binary mixture, x*NMP 0.1, 25 °C, aqueous with cosolvent or surfactant or cyclodextrin, x*NMP 0.1, 298.1 K): 1580 µg/mL (≈ 4.45 mM) | solubility at 24 h ([2]; NMP-water binary mixture, x*NMP 0.2, 25 °C, aqueous with cosolvent or surfactant or cyclodextrin, x*NMP 0.2, 298.1 K): 3290 µg/mL (≈ 9.26 mM) | solubility at 24 h ([2]; NMP-water binary mixture, x*NMP 0.3, 25 °C, aqueous with cosolvent or surfactant or cyclodextrin, x*NMP 0.3, 298.1 K): 4940 µg/mL (≈ 13.9 mM) | solubility at 24 h ([2]; NMP-water binary mixture, x*NMP 0.4, 25 °C, aqueous with cosolvent or surfactant or cyclodextrin, x*NMP 0.4, 298.1 K): 6490 µg/mL (≈ 18.3 mM) | solubility at 24 h ([2]; NMP-water binary mixture, x*NMP 0.7, 25 °C, aqueous with cosolvent or surfactant or cyclodextrin, x*NMP 0.7, 298.1 K): 9560 µg/mL (≈ 26.9 mM) | solubility at 24 h ([2]; NMP-water binary mixture, x*NMP 0.8, 25 °C, aqueous with cosolvent or surfactant or cyclodextrin, x*NMP 0.8, 298.1 K): 10200 µg/mL (≈ 28.7 mM) | solubility at 24 h ([2]; NMP-water binary mixture, x*NMP 0.9, 25 °C, aqueous with cosolvent or surfactant or cyclodextrin, x*NMP 0.9, 298.1 K): 9710 µg/mL (≈ 27.3 mM) | solubility at 24 h ([2]; NMP-water binary solvent, 25 °C, aqueous with cosolvent or surfactant or cyclodextrin, x*NMP 0.5, 298.1 K): 7720 µg/mL (≈ 21.7 mM) | solubility at 24 h ([2]; NMP-water binary solvent, 25 °C, aqueous with cosolvent or surfactant or cyclodextrin, x*NMP 0.6, 298.1 K): 8710 µg/mL (≈ 24.5 mM) | solubility at 24 h ([2]; NMP-water series, x*NMP 1.0, 25 °C, organic solvent or mixture, x*NMP 1.0, 298.1 K): 8990 µg/mL (≈ 25.3 mM) | solubility x ([2]; x*NMP 0.1, 298.1 K): 1.12 (0.01) × 10^−4 mole fraction | solubility x ([2]; x*NMP 0.2, 298.1 K): 3.05 (0.03) × 10^−4 mole fraction | solubility x ([2]; x*NMP 0.3, 298.1 K): 5.74 (0.10) × 10^−4 mole fraction | solubility x ([2]; x*NMP 0.4, 298.1 K): 8.92 (0.10) × 10^−4 mole fraction | solubility x ([2]; x*NMP 0.5, 298.1 K): 1.24 (0.01) × 10^−3 mole fraction | solubility x ([2]; x*NMP 0.6, 298.1 K): 1.60 (0.02) × 10^−3 mole fraction | solubility x ([2]; x*NMP 0.7, 298.1 K): 1.99 (0.02) × 10^−3 mole fraction | solubility x ([2]; x*NMP 0.8, 298.1 K): 2.29 (0.02) × 10^−3 mole fraction | solubility x ([2]; x*NMP 0.9, 298.1 K): 2.40 (0.03) × 10^−3 mole fraction | solubility x ([2]; x*NMP 1.0, 298.1 K): 2.44 (0.06) × 10^−3 mole fraction | solubility at 24 h ([3]; neat DMF, 298.1 K): 1690 µg/mL (≈ 4.76 mM) | solubility at 24 h ([3]; neat DMP, 298.1 K): 80 µg/mL (≈ 0.225 mM) | solubility at 24 h ([3]; neat DMSO, 298.1 K): 3090 µg/mL (≈ 8.7 mM) | solubility at 24 h ([3]; neat NMP, 298.1 K): 8990 µg/mL (≈ 25.3 mM) | solubility at 24 h ([3]; neat acetone, 298.1 K): 210 µg/mL (≈ 0.591 mM) | solubility at 24 h ([3]; neat acetonitrile, 298.1 K): 170 µg/mL (≈ 0.479 mM) | solubility at 24 h ([3]; neat cyrene, 298.1 K): 290 µg/mL (≈ 0.816 mM) | solubility at 24 h ([3]; neat diglyme, 298.1 K): 520 µg/mL (≈ 1.46 mM) | solubility at 24 h ([3]; neat dioxane, 298.1 K): 310 µg/mL (≈ 0.873 mM) | solubility at 24 h ([3]; neat ethyl lactate, 298.1 K): 180 µg/mL (≈ 0.507 mM) | solubility at 24 h ([3]; neat methanol, 298.1 K): 60 µg/mL (≈ 0.169 mM) | solubility at 24 h ([3]; neat tetraglyme, 298.1 K): 430 µg/mL (≈ 1.21 mM) | solubility at 24 h ([3]; neat triglyme, 298.1 K): 230 µg/mL (≈ 0.647 mM) | solubility at 24 h ([3]; neat γ-heptalactone, 298.1 K): 440 µg/mL (≈ 1.24 mM) | solubility at 24 h [3, 4]: 280 µg/mL (≈ 0.788 mM) | solubility at 24 h ([3]; neat 1-butanol): 20 µg/mL (≈ 0.0563 mM) | solubility at 24 h ([3]; neat 1-propanol): 20 µg/mL (≈ 0.0563 mM) | solubility at 24 h ([3]; neat 4FM): 940 µg/mL (≈ 2.65 mM) | solubility x ([3]; neat 4FM, 298.1 K): 2.65 (0.11) × 10^−4 mole fraction | solubility x ([3]; neat DMF, 298.1 K): 3.69 × 10^−4 mole fraction and 3.69 (0.05) × 10^−4 mole fraction | solubility x ([3]; neat DMP, 298.1 K): 0.27 (0.01) × 10^−4 mole fraction | solubility x ([3]; neat DMSO, 298.1 K): 6.12 × 10^−4 mole fraction and 6.12 (0.10) × 10^−4 mole fraction | solubility x ([3]; neat NMP, 298.1 K): 2.44 × 10^−3 mole fraction and 2.44 (0.07) × 10^−3 mole fraction | solubility x ([3]; neat acetone, 298.1 K): 0.43 (0.01) × 10^−4 mole fraction | solubility x ([3]; neat cyrene, 298.1 K): 0.83 (0.01) × 10^−4 mole fraction | solubility x ([3]; neat diglyme, 298.1 K): 2.08 (0.07) × 10^−4 mole fraction | solubility x ([3]; neat dioxane, 298.1 K): 0.74 (0.01) × 10^−4 mole fraction | solubility at 24 h ([3]; neat ethanol): 30 µg/mL (≈ 0.0844 mM) | solubility x ([3]; neat ethyl lactate, 298.1 K): 0.57 (0.01) × 10^−4 mole fraction | solubility x ([3]; neat tetraglyme, 298.1 K): 2.67 (0.09) × 10^−4 mole fraction | solubility x ([3]; neat triglyme, 298.1 K): 1.17 (0.05) × 10^−4 mole fraction | solubility x ([3]; neat γ-heptalactone, 298.1 K): 1.59 (0.04) × 10^−4 mole fraction | solubility x [3, 4]: 1.26 (0.05) × 10^−4 mole fraction | solubility at 24 h ([3]; neat ε-caprolactone): 340 µg/mL (≈ 0.957 mM) | solubility x ([3]; neat ε-caprolactone, 298.1 K): 1.02 (0.02) × 10^−4 mole fraction
